Data on one compound can be found in US20070225278A1, “Methods for treating cognitive and other disorders” (priority 2006, published 2007).

One data set relates to male Sprague-Dawley rats. The data set is classed as in vivo, rat. The following applies: minimal dose at which sexual dysfunction occurs, male rats. An excerpt:
In summary, male rats were allowed access to sexually receptive females during a single overnight mating session and then administered antidepressants with varying degrees of clinically reported sexual deficits. […] Animals
Intact male Sprague-Dawley rats (Charles River Laboratories) arrived at 7 weeks of age and were allowed to habituate for one week prior to sexual experience or behavioral testing. Rats were group housed in same-sex colony rooms with food and water provided ad libitum. All animals were maintained under a 12:12 light-dark cycle (lights on at 6:00 am) with behavioral experiments performed during the light hours beginning at noon.
Ovariectomized female Long-Evans rats (Charles River Laboratories) were individually housed and brought into behavioral estrus weekly by subcutaneous injection of 25 ug 17-B estradiol benzoate in 0.1 ml corn oil 48 hours prior to testing, followed by subcutaneous administration of 2.5 mg progesterone in 0.1 ml corn oil 4 to 6 hours before testing.
For subjects assigned into the sexually experienced group, the following procedures were performed. Individual male rats were placed into the home cage of a a sexually receptive female for overnight mating sessions. The cage was a Plexiglas cage measuring 10×12 inches, with food and water ad libitum. Mating pairs were randomly assigned. […] Following overnight mating sessions, males and females were separated from each other and placed back into same-sex colony rooms where they were group-housed until the time of behavioral testing.
To determine the effects of female stimuli on non-contact penile erections, sexually receptive females were brought into the testing room 30 minutes prior to the start of behavioral testing in order to provide female visual, olfactory, and auditory stimuli for males. The testing arena for observing non-contact penile erections in male rats consisted of an empty rat size Plexiglas cage (11×10 inches) containing no bedding, with an aerated plastic lid and a total ceiling height of 12 inches. […] A penile erection consisted of observation of the male rat in a hunched position grasping the penis with the forepaws and followed by a series of pelvic thrusts. The number of penile erections were quantified over a 30 minute observation session.
Following sexual experience (as described above), male subjects (n=8 per group) were administered either 10 mg/kg/day fluoxetine or saline vehicle for 14 days. On the 14th day, fluoxetine treatment was co-administered with either saline or apomorphine (0.1-0.3 mg/kg, sc) or yohimbine (0.1-0.3 mg/kg, sc) or sildenafil (0.1-0.3 mg/kg, sc) in separate experiments. Non-contact penile erections were evaluated in 30 minute test sessions in the presence of sexually receptive female rats.
Fluoxetine HCl (Tocris), desipramine (Sigma, St. Louis, Mo.) and bupropion HCl (Toronto Research Chemicals, Canada) were dissolved in 0.9% sterile saline vehicle and injected intraperitoneally (i.p.) once daily. On the day of behavioral testing, antidepressants were administered intraperitoneally (i.p.) as one hour pretreatments. For reversal experiments, apomorphine (Sigma, St. Louis, Mo.), yohimbine (Sigma, St. Louis, Mo.) or sildenafil (Toronto Research Chemicals, Canada) were used. Apomorphine was dissolved in 0.9% sterile saline vehicle and injected subcutaneously (s.c.). Yohimbine was dissolved in dH2O facilitated with 1N HCl, followed by addition of 1N NaOH for titration (pH=7) and administered intraperitoneally (i.p.). Sildenafil was dissolved in 0.9% sterile saline vehicle and administered intraperitoneally (i.p.). With the exception of fluoxetine which was administered in a dose volume of 2 ml/kg, all other test compounds were administered in a dose volume of 1 ml/kg. On the day of behavioral testing, both fluoxetine and the reversal agent (apomorphine, yohimbine, or sildenafil) were co-administered as 0 minute pretreatments. […]

Data set [1] in a line: Antidepressant-like effects (MED), Table 2. The data set is classed as in vivo. The following applies: minimal effective dose. From the text: Table 2, below, summarizes the dose at which antidepressant-like effects are observed, the dose at which sexual dysfunction occurs, and the therapeutic window.
Another data set concerns male Long-Evans rats. In words: Novel object recognition (NOR). The data set is classed as in vivo, rat. As for the experimental part: Animals: Adult male Sprague-Dawley rats (Charles River, Wilmington, Mass.) weighing 280-350 g at the time of surgery were used for all microdialysis experiments. Adult male Long-Evans rats (Charles River, Wilmington, Mass.) weighing 180-220 g were used for NOR studies. Rats were housed individually for recognition memory studies. All animals had free access to food and water and were group housed in the AAALAC-accredited facility that was maintained on a 12 h light dark cycle (lights on at 0600 h) for at least 1 week prior to surgery or behavioral testing. […]
Novel object recognition (NOR) training and testing was performed in a circular field (diameter ˜70 cm, 30 cm high) constructed out of plastic and containing bedding. […] Animal performance was tracked by video and monitored by an experimenter located outside of the testing room. […]
The visual recognition task was divided into 3 sessions—habituation, a sample trial and a choice trial. […] The amount of time exploring the objects was recorded for the entire trial. […]
The effect of treatment on object exploration during the sample trial was examined using a one-way ANOVA on total contact time followed by Fisher's LSD group mean pairwise comparisons. The amount of time exploring the novel and familiar objects across treatment groups was analyzed using a repeated measures ANOVA followed by Fisher's LSD post hoc comparisons. […]

In data set [2] the test system is male Sprague Dawley CD rats. Nature of the data set: Reversal of d-amphetamine induced deficits in pre-pulse inhibition (PPI). The following applies: 3-17 mg/kg IP, d-amphetamine 4 mg/kg SC.

In the case of `c1cc2c3c(c1)[C@H]1CCC[C@H]1N3CCNC2` [Compound 1], the “Sexual dysfunction (MED mg/kg)” value in the data set with male Sprague-Dawley rats was “≧10 mg/kg”. Besides, the “Antidepressant-like effects (MED mg/kg)” value in data set [1] was 0.3 mg/kg. In the data set on male Long-Evans rats (1 mg/kg orally), the “effect on exploration during the sample trial” value is on record as “No significant effect”. In the data set on male Long-Evans rats (1 mg/kg orally 60 minutes prior to sample trial, 48 hour retention interval), the “exploration of novel vs familiar object in choice trial (retention)” value is “significantly greater time spent exploring the novel than the familiar object”. In data set [2] (all doses tested), the “attenuation of amphetamine induced deficit in PPI” value is listed as “significantly attenuated”. In addition, in data set [2], the “effect on startle alone responding” value is listed as “without having a significant effect”.
